Numbers after ± are expanded uncertainties.
Columns and labels:
[1] = cn = amount concentration of the nth substance listed, in mol/dm3; details: 101 kPa, Liquid; for viscosity: Capillary tube (Ostwald / Ubbelohde) method; for mass density: Vibrating tube method
[2] = 101 kPa, Liquid; for viscosity: Capillary tube (Ostwald / Ubbelohde) method; for mass density: Vibrating tube method

CCCCn1cc[n+](C)c1C.F[B-](F)(F)F [1-butyl-2,3-dimethylimidazolium tetrafluoroborate] + CO
[1]
Details	mass density, c1 = 0.005 [kg/m3]	mass density, c1 = 0.01 [kg/m3]	mass density, c1 = 0.015 [kg/m3]	mass density, c1 = 0.02 [kg/m3]	viscosity, c1 = 0.005 [mPa·s]	viscosity, c1 = 0.01 [mPa·s]	viscosity, c1 = 0.015 [mPa·s]	viscosity, c1 = 0.02 [mPa·s]
298.15 K	787.59 ± 1	788.04 ± 1	788.45 ± 1	788.96 ± 1	0.552 ± 0.012	0.5649 ± 0.012	0.5747 ± 0.012	0.5845 ± 0.012
308.15 K	778.01 ± 1	778.52 ± 1	778.98 ± 1	779.46 ± 1	0.487 ± 0.01	0.4978 ± 0.01	0.5043 ± 0.011	0.513 ± 0.011
318.15 K	768.49 ± 1	769.43 ± 1	769.92 ± 1	770.36 ± 1	0.4271 ± 0.0091	0.436 ± 0.0093	0.4446 ± 0.0095	0.4532 ± 0.0096

CO [methanol]
[2]
Details	mass density [kg/m3]	viscosity [mPa·s]
298.15 K	786.61 ± 1	0.545 ± 0.011
308.15 K	777.15 ± 1	0.476 ± 0.01
318.15 K	767.74 ± 1	0.4183 ± 0.0089

CO [methanol] + CCCCn1cc[n+](C)c1C.F[B-](F)(F)F
[1], c2 = 0
Details	mass density [kg/m3]	viscosity [mPa·s]
298.15 K	786.61 ± 1	0.545 ± 0.011
308.15 K	777.15 ± 1	0.476 ± 0.01
318.15 K	767.74 ± 1	0.4183 ± 0.0089

Reference: the NIST ThermoML archive (doi:10.1016/j.jct.2013.09.018)
